Experimental data: patent publication US20180085460A1, “METHODS OF TREATING PROSTATITIS” (Aquinox Pharmaceuticals (Canada) Inc., priority 2016, published 2018)

Assays:
Type in all cases: in vivo
[1] = tested on: carrageenan-induced prostatitis model in male Sprague-Dawley rats; assay: Pelvic pain (von Frey filaments) in carrageenan-induced prostatitis model
[2] = tested on: ventral prostate lobes of carrageenan-injected male Sprague-Dawley rats; assay: Ventral prostate lobes weight 7 days after carrageenan i.prost. injection; details: AQX-1125 0.3, 1, 3 or 10 mg/kg p.o.; seven days after carrageenan injection
Description: The whole prostate and ventral prostate lobes were weighed using a Scout® Pro balance (OHAUS, Nänikon, Switzerland).
AQX-1125 (0.3, 1, 3 and 10 mg/kg) or saline vehicle were administered orally (p.o.) once a day from D−3 to D+7 for a total of 11 administrations. At D0, D+1, D+3 and D+7 administrations were performed 2 h prior to von Frey testing. […] On the morning of each experimental day, rats were weighed and administrations were performed at a volume of 5 mL/kg.
(§1) Surgical procedures were performed in morning, as follows: anaesthesia was induced by 5% isoflurane and maintained with 2.5% isoflurane for the duration of the procedure. The surgical area (lower abdomen above the penis) and the scrotal skin were shaved. An incision was made in the skin and abdominal wall to expose both ventral lobes of the prostate gland. Carrageenan (30 mg/mL) was injected in both right and left ventral lobes of the prostate (˜12.5 μL per lobe).
After blood sampling, rats were sacrificed by cervical dislocation and the whole prostates were rapidly collected and weighed. Then both ventral prostate lobes were dissected and weighed together.

[3] = tested on: carrageenan-induced prostatitis model in male Sprague-Dawley rats; assay: Pelvic pain (von Frey filaments) in carrageenan-induced prostatitis model; remark: listed apart in the source
Description: Animals were acclimatized to the laboratory conditions for at least 3 days before the start of experiments. Rats were housed in groups of 2 in polysulfone type Sealsafe plus GR900 cages (Tecniplast, Lyon, France) on a bed of wood chips with free access to food and water ad libitum. Species appropriate environmental enrichment was added to the cages. The animal house was maintained under artificial lighting 7:00 a.m. to 7:00 p.m. in a controlled ambient temperature of 22±2° C., and relative humidity maintained at 55±10%.
Mechanical stimulation was performed using von Frey filaments of different forces.
For each day of administration, the stock solution was allowed to equilibrate to room temperature under stirring, for at least 30 min.
Carrageenan was purchased from Sigma-Aldrich. Carrageenan (prepared fresh each day of injection) was dissolved in sterile physiological saline at a final concentration of 30 mg/mL (w/v).
Seven experimental groups of 10 animals were included in this study as described in the table below.
At D0, D+1, D+3 and D+7 administrations were performed 2 h prior to von Frey testing. […] On the morning of each experimental day, rats were weighed and administrations were performed at a volume of 5 mL/kg.
as §1
Control rats were injected with physiological saline under the same experimental conditions as carrageenan (i.e. i.prost., ˜12.5 μL per lobe).
After i.prost. injection, the wounds in both muscles were closed using absorbable suture and the skin layers were closed using permanent suture.
Pelvic pain was evaluated in a non-blinded manner by applying 6 von Frey filaments of increasing forces (0.16, 0.4, 0.6, 1, 1.4 and 2 g) to the scrotum area, with an interval of 5 seconds between each filament.
Prior to testing, the scrotal skin area designated for mechanical stimulation of each animal was shaved. Animals were placed on a raised wire mesh floor under individual transparent Plexiglas boxes and acclimatized for at least 30 min before starting the von Frey test. Filaments were then applied 1-2 seconds through the mesh floor with enough strength to cause the filament to slightly bend. Each filament was tested 3 times with an interval of 5 seconds between each application.
Nociceptive behavioral scores to von Frey filaments were assessed just before saline or carrageenan injection, in order to obtain basal values (D0), and at defined time points (D+1, D+3 and D+7) after saline or carrageenan injection.
Nociceptive behaviors were scored for each animal and each filament as follows: […]

[4] = tested on: carrageenan-induced pelvic pain in male Sprague-Dawley rats; assay: Previous study: carrageenan-induced pelvic pain, AQX-1125 3, 10 and 30 mg/kg
Excerpt: An animal model of inflammation-induced pelvic pain for inflammatory CP/CPPS was developed and validated using intraprostatic (i.prost.) injection of carrageenan in male Sprague-Dawley rats (adapted from Radhakrishnan, R. and Nallu, R. S., 2009. Development and characterization of a novel animal model of prostate inflammation-induced chronic pelvic pain, Inflammopharmacology, 17: 23-28). This animal model was characterized by both referred mechanical allodynia (decreased mechanical threshold in response to innocuous von Frey forces) and referred mechanical hyperalgesia (increased nociceptive scores in response to noxious von Frey forces) (Augé C. et al., 2012, Nociceptive measures in chronic prostatitis: a model of inflammation-induced pelvic pain in rats, 14th World Congress on Pain (Milan, Italy)).

[5] = Ibuprofen 300 mg/kg p.o. once at D+3, 1 h prior to testing, p<0.001

CC(C)Cc1ccc(C(C)C(=O)O)cc1 (racemic) [Ibuprofen, (RS)-2-(4-(2-methylpropyl)phenyl)propanoic acid]
nociceptive scores vs vehicle [1, 5]: decreases in nociceptive scores | nociceptive threshold vs vehicle [1, 5]: a significant increase in the nociceptive threshold was observed | carrageenan-induced pelvic pain ([1]; Ibuprofen 300 mg/kg, 1 h after oral administration): alleviated carrageenan-induced pelvic pain

C=C1CC[C@H]2[C@H](CN)[C@@H]([C@@]3(C)CC[C@H](O)C[C@@H]3CO)CC[C@]12C [AQX-1125, (1S,3S,4R)-4-((4R,7aS)-4-(aminomethyl)-7a-methyl-1-methyleneoctahydro-1H-inden-5-yl)-3-(hydroxymethyl)-4-methylcyclohexanol]
ventral prostate lobes weight as a ratio of whole prostate weight [2]: had no effect on ventral prostate lobes weights | ventral prostate lobes weight expressed in mg [2]: had no effect on ventral prostate lobes weights | nociceptive threshold vs vehicle ([3]; AQX-1125 10 mg/kg p.o. once a day, D+1 p>0.05, D+3 and D+7 p<0.05): reached the significance level only at day 3 and 7 | AUC (0.16-2 g) of nociceptive scores vs vehicle ([3]; AQX-1125 10 mg/kg p.o., D+1 p>0.05, D+3 p<0.01, D+7 p<0.05): a significant effect was observed only at day 3 and 7 | nociceptive scores vs vehicle ([3]; AQX-1125 0.3, 1, 3 and 10 mg/kg p.o., all tested time-points (D+1, D+3, D+7)): decreases in nociceptive scores were observed | nociceptive threshold vs vehicle ([3]; AQX-1125 0.3, 1 and 3 mg/kg p.o. once a day, day 1, 3 and 7 post-carrageenan, p<0.05): significantly and dose-dependently increased the nociceptive threshold | AUC (0.16-2 g) of nociceptive scores vs vehicle ([3]; AQX-1125 0.3, 1 and 3 mg/kg p.o., all tested time-points, p<0.01): significant decreases in AUC (0.16-2 g) were observed | significance of effect on nociceptive scores ([3]; AQX-1125 all doses, 10 mg/kg at D1 p=0.0638): reached significance, except for the 10 mg/kg dose at D1 | anti-nociceptive properties beyond the optimal dose ([3]; AQX-1125 beyond 3 mg/kg (10 mg/kg p.o.)): less pronounced anti-nociceptive properties | carrageenan-induced pelvic pain ([3]; AQX-1125 daily oral treatments at 0.3, 1 and 3 mg/kg): significant and dose-related decreases in carrageenan-induced pelvic pain | dose at which maximal effect was reached ([3]; AQX-1125 p.o. once a day, doses tested 0.3, 1, 3 and 10 mg/kg): 3 mg/kg | anti-nociceptive properties on carrageenan-induced pelvic pain ([3]; AQX-1125 repeated oral treatments once a day during 11 days at 0.3, 1 and 3 mg/kg): strong anti-nociceptive properties | optimal dose for pain management ([3]; rat model of carrageenan-induced chronic prostatitis, p.o.): 3 mg/kg | anti-nociceptive properties on carrageenan-induced pelvic pain ([4]; AQX-1125 3, 10 and 30 mg/kg p.o. once a day during 11 days): strong anti-nociceptive properties | dose at which maximal effect was reached ([4]; doses tested 3, 10 and 30 mg/kg p.o.): 3 mg/kg
